# What was measured:
# [1] = mouse, in vivo
# [2] = test system: patient-derived PBMC
# Description: FIG. 1: DOX effects on proliferation potential of PBMC from patients under neoadjuvant chemotherapy.
# A. Flow cytometry of DOX internalization profile in PBMC isolated from a representative patient before and after DOX parenteral infusion.
# B. Quantification of Mean Fluorescence Intensity (MFI) in PBMC isolated from patients. The profiles represent the values of DOX fluorescence in each patient before and after chemotherapy. The histogram reports the mean DOX fluorescence value between all the samples analyzed.
# C. Representative image of proliferation analysis of PBMC isolated from BC patients before and after 1 cycle of neoadjuvant chemotherapy with DOX using CFSE assay.
# D. Quantification of proliferative index at different days of culture after Concanavalin A stimulation (ConA). The proliferation index is the ratio between proliferating cells and progenitor cells. The absence of proliferation is represented by a proliferative index of 1.
# FIG. 2: Characterization of lymphocytes subpopulations that internalize DOX. Flow cytometry immunophenotyping of T-Lymphocytes CD8+ e CD4+ to identify populations that internalize DOX (high, int, low). CM: Central Memory, EM: Effector Memory.
smiles,measurement,setting,value
"COc1cccc2c1C(=O)c1c(O)c3c(c(O)c1C2=O)C[C@@](O)(C(=O)CO)C[C@@H]3O[C@H]1C[C@H](N)[C@H](O)[C@H](C)O1 [DOX, doxorubicin]",cardiomyocyte cross-section area,[1],increase in cardiomyocyte cross-section area
same,mitochondria area and cristae morphology,[1],alteration in mitochondria area and cristae morphology
same,mitochondria number in heart tissue,[1],increase in mitochondria number
same,mitochondrial membrane potential and amount of reduced glutathione,[1],induced alterations
same,DOX uptake by lymphocyte sub-populations,[2]; FIG. 2,naïve T-cells (CD3+CD8+/CD4+CD45RO−) displayed the highest DOX uptake
same,DOX internalization in PBMC,[2]; PBMC isolated after chemotherapy (FIG. 1),promptly internalized DOX
same,proliferation in response to mitogenic stimulations,[2]; after versus before chemotherapy (FIG. 1),dramatic proliferative impairment

# — patent US20210393539A1, “FERRITIN NANOPARTICLES COMPRISING A CHEMOTHERAPEUTIC AGENT” (INTHENA S.R.L., priority 2018, published 2021)
